Measured values published in patent US9573920B2, “Compound, medicine, anti-inflammatory, cosmetic, food and drink, and method for producing compound” (Amino Up Chemical Co., Ltd., priority 2013, dated 2017).

Experiments:
CINC-2α/β = experiment: cytokine/chemokine array (in vitro), CINC-2α/β; format: cell-based, rat; conditions: (+) IL-1β 1 nM, Pa5′ 100 μM
Description: (§1) In like manner with Example 4, liver cells were isolated from male Wistar rats by a collagenase perfusion method. The isolated liver cells were suspended in a medium (similar to that in Example 4) at 1.2×10^6 cells/mL, seeded in 35 mm plastic dishes (similar to those in Example 4) (1 mL/dish), and cultured in an incubator with 5% CO2 at 37° C. After 5 hours, the medium was replaced with fresh WE free of any serum and hormone, and the cells were cultured overnight until before use of the cells for an experiment.
(§2) On day 1 after the start of the culture, cells were subjected to replacement with fresh WE free of any serum and hormone, and IL-1β (similar to that in Example 4), and Pa5 extracted with methanol in Example 1 or Pa5′ extracted with methanol in Example 2 were added to the medium. The concentrations of IL-1β, Pa5, and Pa5′ in each medium were 1 nM, 20 μM, and 100 μM, respectively (Table 1). Then, the cells were cultured at 37° C., and the medium was collected 3 hours after the start of the culture. The collected medium was centrifuged for 1 minute at 5000 rpm to remove cellular debris, and the supernatant was used in an assay. The supernatant was preserved at −80° C. until performing the assay.
(§3) The productions of the various inflammatory cytokines/chemokines were measured according to an accompanying protocol using Rat Cytokine Antibody Array (R&D Systems) (http://www.rndsystems.com/product_detail_objectname_ratcytokinearray.aspx) capable of detecting 29 kinds of cytokines/chemokines in Proteome Profiler® Antibody Array. In the measurement, 1 mL of the supernatant of the medium obtained as described above was used.
(§4) In the above-described method, the 29 kinds of the cytokines/chemokines can be detected at once, and chemiluminescence on the filter of Proteome Profiler Antibody Array increases in proportion to the amount of each cytokine/chemokine. Thus, the chemiluminescence on the filter of Proteome Profiler Antibody Array was detected with LAS3000mini (GE Healthcare), subjected to densitometry analysis, and converted into a numeric value. The densitometry analysis was carried out with reference to http://www.hm6.aitai.ne.jp/˜maxcat/imageJ/technique.html#gels (the heading of “Analyzing Electrophoretic Gels”) using ImageJ software.

CINC-3 = experiment: cytokine/chemokine array (in vitro), CINC-3; format: cell-based, rat; conditions: (+) IL-1β 1 nM, Pa5′ 100 μM
Description: as §1, §2, §3, §4

Fractalkine (CX3CL1) = experiment: cytokine/chemokine array (in vitro), Fractalkine; format: cell-based, rat; conditions: Pa5′ 100 μM
Description: as §1, §2, §3, §4

sICAM-1 (CD54) = experiment: cytokine/chemokine array (in vitro), sICAM-1; format: cell-based, rat; conditions: (+) IL-1β 1 nM, Pa5′ 100 μM
Description: as §1, §2, §3, §4

MIG (CXCL9) = experiment: cytokine/chemokine array (in vitro), MIG; format: cell-based, rat; conditions: (+) IL-1β 1 nM, Pa5′ 100 μM
Description: as §1, §2, §3, §4

[1] = tested on: VEGF (VEGF-A/Vasculotropin); experiment: cytokine/chemokine array (in vitro), VEGF; format: cell-based, rat; conditions: (+) IL-1β 1 nM, Pa5′ 100 μM
Description: as §1, §2, §3, §4

IL-17 = experiment: cytokine/chemokine array (in vitro), IL-17; format: cell-based, rat; conditions: Pa5′ 100 μM
Description: as §1, §2, §3, §4

Thymus Chemokine (CXCL7) = experiment: cytokine/chemokine array (in vitro), Thymus Chemokine; format: cell-based, rat; conditions: Pa5′ 100 μM
Description: as §1, §2, §3, §4

[2] = tested on: nitrogen monoxide (NO) production due to IL-1β; experiment: NO production inhibitory action in IL-1β-stimulated rat liver cells (Griess method); format: cell-based; conditions: IL-1β 1 nM, 8 hours
Description: Liver cells were isolated from male Wistar rats (200 to 250 g, Charles River) by a collagenase perfusion method (collagenase: Wako Pure Chemicals). The isolated liver cells were suspended in a medium at 6×10^5 cells/mL, seeded in 35 mm plastic dishes (Falcon Plastic) (2 mL/dish), and cultured in an incubator with 5% CO2 at 37° C. Williams' Medium E (WE) containing 10% newborn calf serum, HEPES (5 mM), penicillin (100 U/mL), streptomycin (0.1 mg/mL), dexamethasone (10 nM), and insulin (10 nM) was used as the medium. After 5 hours, the medium was replaced with fresh WE free of any serum and hormone, and the cells were cultured overnight until before use of the cells for an experiment.
On day 1 after the start of the culture, cells were subjected to replacement with fresh WE free of any serum and hormone, and recombinant rat IL-1β (purity of 97% or more) (PeproTech, Rocky Hill, N.J., USA), and Pa5 extracted with methanol in Example 1 or negletein in the comparative example were added to the medium. In each medium, the concentration of IL-1β was 1 nM, the concentrations of Pa5 were 5, 10, and 20 μM, and the concentrations of negletein were 10, 20, and 40 μM (FIG. 1). The amount of NO in each medium was measured 8 hours after the addition of IL-1β, and Pa5 or negletein by a Griess method (Green L C et al, Anal Biochem 1982; 126: 131-138). More specifically, the amount of nitrite (stable metabolite of NO) in each medium was measured.
Liver cells originated from rats were cultured in like manner with Example 4. On day 1 after the start of the culture, the cells were subjected to replacement with fresh WE free of any serum and hormone, and recombinant rat IL-1β (similar to that in Example 4) and Pa9 extracted with methanol in Example 3 were added to the medium. In each medium, the concentration of IL-1β was 1 nM, and the concentrations of Pa9 were 10 μM, 50 μM, and 100 μM (FIG. 5). The amount of NO in each medium was measured 8 hours after the addition of IL-1β and Pa9 in like manner with Example 4.

[3] = (+) IL-1β 1 nM, 3 hours, (+) alone = 100.0
[4] = (+) IL-1β 1 nM, medium at 3 hours
[5] = rat liver cells, IL-1β 1 nM, 3 hours

## COc1cc(O)c2c(c1O)OC(c1ccccc1)CC2=O (stereo not shown) [Pa5′, 5,8-dihydroxy-7-methoxyflavanone]
CINC-2α/β; 3 hours, (+) alone = 100.0
  CINC-2α/β (%): 96.8%
CINC-2α/β; medium at 3 hours
  CINC-2α/β chemiluminescence densitometry, Average: 5839.6
  CINC-2α/β chemiluminescence densitometry, first value: 5944.2
  CINC-2α/β chemiluminescence densitometry, second value: 5735.0
CINC-3; 3 hours, (+) alone = 100.0
  CINC-3 (%): 60.8%
CINC-3; medium at 3 hours
  CINC-3 chemiluminescence densitometry, Average: 1846.9
  CINC-3 chemiluminescence densitometry, first value: 1849.2
  CINC-3 chemiluminescence densitometry, second value: 1844.7
Fractalkine (CX3CL1); [3]
  Fractakine (CX3CL1) (%): 42.7%
Fractalkine (CX3CL1); [4]
  Fractakine (CX3CL1) chemiluminescence densitometry, Average: 310.1
  Fractakine (CX3CL1) chemiluminescence densitometry, first value: 287.0
  Fractakine (CX3CL1) chemiluminescence densitometry, second value: 333.3
Fractalkine (CX3CL1); [5]
  induction of fractalkine (CX3CL1): strongly inhibit
sICAM-1 (CD54); 3 hours, (+) alone = 100.0
  sICAM-1 (CD54) (%): 68.4%
sICAM-1 (CD54); medium at 3 hours
  sICAM-1 (CD54) chemiluminescence densitometry, Average: 257.3
  sICAM-1 (CD54) chemiluminescence densitometry, first value: 250.3
  sICAM-1 (CD54) chemiluminescence densitometry, second value: 264.3
MIG (CXCL9); 3 hours, (+) alone = 100.0
  MIG (CXCL9) (%): 86.8%
MIG (CXCL9); medium at 3 hours
  MIG (CXCL9) chemiluminescence densitometry, Average: 666.4
  MIG (CXCL9) chemiluminescence densitometry, first value: 672.8
  MIG (CXCL9) chemiluminescence densitometry, second value: 660.1
[1]; 3 hours, (+) alone = 100.0
  VEGF (VEGF-A/Vasculotropin) (%): 109.7%
[1]; medium at 3 hours
  VEGF (VEGF-A/Vasculotropin) chemiluminescence densitometry, Average: 896.7
  VEGF (VEGF-A/Vasculotropin) chemiluminescence densitometry, first value: 875.1
  VEGF (VEGF-A/Vasculotropin) chemiluminescence densitometry, second value: 918.4
IL-17; [3]
  IL-17 (%): 29.6%
IL-17; [4]
  IL-17 chemiluminescence densitometry, Average: 36.7
  IL-17 chemiluminescence densitometry, first value: 6.1
  IL-17 chemiluminescence densitometry, second value: 67.2
IL-17; [5]
  induction of IL-17: strongly inhibit
Thymus Chemokine (CXCL7); [3]
  Thymus Chemokine (CXCL7) (%): 23.1%
Thymus Chemokine (CXCL7); [4]
  Thymus Chemokine (CXCL7) chemiluminescence densitometry, Average: 73.0
  Thymus Chemokine (CXCL7) chemiluminescence densitometry, first value: 62.8
  Thymus Chemokine (CXCL7) chemiluminescence densitometry, second value: 83.2
Thymus Chemokine (CXCL7); [5]
  induction of thymus chemokine (CXCL7): strongly inhibit

## O=c1ccc2cc(O)c(O)cc2o1 [Pa9, esculetin]
[2]; nitrite by Griess method, read-out: IC50 value (drug concentration at NO production of 50%)
  IC50: 32 µM
[2]; Pa9 10, 50, 100 μM
  production of NO due to IL-1β: dose-dependently inhibited
